From PMC5520944 (Cell Death & Disease, 2017)
Counter-ions that a name gives are not always drawn.

Tested on: L929sAhFas
Assay: cells
Set-up: high-content necroptosis screen, percentage PI-positive nuclei as percent of DMSO plus stimulus control
Conditions: read-out: cell death TNF (POC)
From the text: To identify novel inhibitors or regulators of necroptosis, 500 small compounds from libraries targeting autophagy, kinases, phosphatases, proteases and redox balance were screened for their ability to block TNF-induced necroptosis in murine L929sAhFas cells. Three conditions were used to induce necroptosis in L929 cells: TNF alone, TNF+TAK1 inhibitor (TAK1i) and TNF+zVAD-fmk, a pan-caspase inhibitor. Inhibition of TAK1 or caspases sensitizes to necroptosis.[13], [32] Necroptosis, measured as the percentage of PI-positive nuclei normalized to the plate-specific DMSO control, was determined for each compound (Supplementary Figure 1A). […] After compound treatment, L929sAhFas (a) or L929 (b) cells were stimulated with mTNF (T), mTNF+Tak1i (TiT) or mTNF+zVAD (zVT) (Supplementary Figure 1A and B). (a) Cell death percentage (% PI-positive nuclei) or cell loss was calculated as percent of control (DMSO+stimulus). […] (b) Cell loss (luminescence-based readout for ATP) was calculated as percent of control (DMSO+stimulus). […] In stimulated conditions, % PI-positive nuclei was determined as % of DMSO control. Data represent mean values±S.E.M. of two independent experiments. Cells were stained with Hoechst and PI and percentage PI-positive nuclei was determined using high-content image analysis (BD pathway Bioimager). (d) L929sAhFas cells were treated with Sorafenib (concentration as indicated) for 24 h. Then, stimulus was removed, 50 cells/condition seeded and colonies counted with crystal violet staining after 10 days incubation. […] Schemes of workflow screening assays in L929 cell lines. (A) Scheme of the workflow of a high-content screening assay on L929sAhFas cells using mTNF (T) and mTNF+Tak1i ((5Z)-7-Oxozeaenol) (TiT) to induce necroptotic cell death. Nec-1 and zVAD-fmk were used as protective and sensitizing benchmarks, respectively, on all plates. (B) Scheme of the workflow of a CellTiter-Glo luminescent cell viability screening assay on L929 cells using mTNF+zVAD (zVT) to induce necroptotic cell death. Supplementary Figure S2. Z’ calculation for cell death screening assays in L929 cells. (A) Z’ calculation for cell death screening assay (Fig. 1A) in mTNF-stimulated L929sAhFas cells. (B) Z’ calculation for cell death screening assay (Fig. 1A) in L929sAhFas cells stimulated with mTNF + Taki.

| Structure (SMILES) | activity at 10 µM [%] |
| --- | --- |
| O=S(=O)(c1cccc2c(I)cccc12)N1CCCNCC1 [ML-7·HCl] | 90.2 |
| O=S(=O)(c1cccc2c(Cl)cccc12)N1CCCNCC1 [ML-9·HCl] | 84.8 |
| O=P(O)(O)C(O)c1ccc2ccccc2c1 (stereo not shown) [HNMPA] | 80.3 |
| COc1cccc(-c2cc(=O)c3ccccc3o2)c1N [PD-98059] | 70.9 |
| Cc1ccc(NC(=O)c2cccc(N(C)C)c2)cc1NC(=O)c1ccc(O)cc1 [ZM 336372] | 81.9 |
| O=C(O)c1ccc2nc(-c3ccccc3)c(-c3ccccc3)nc2c1 [BML-257] | 91.3 |
| C[C@@H](N)[C@H]1CC[C@H](C(=O)Nc2ccncc2)CC1 [Y-27632·2HCl] | 93.3 |
| N#CC(C#N)=Cc1ccc(O)c(O)c1 [TYRPHOSTIN 23] | 88.9 |
| N#CC(C#N)=Cc1cc(O)c(O)c(O)c1 [TYRPHOSTIN 25] | 90 |
| CN(C)c1ccc(/C=C2\C(=O)Nc3ccccc32)cc1 [SU 4312] | 69.6 |
| N#C/C(=C\c1cc(Cl)cc(Cl)c1)c1cccnc1 [RG-14620] | 95.9 |
| N#CC(C#N)=Cc1cc(O)c(O)c([N+](=O)[O-])c1 [TYRPHOSTIN AG 1288] | 81.1 |
| N#C/C(=C\c1ccc(O)c(O)c1)C(=O)Nc1ccccc1 [AG-494] | 58.6 |
| N#CC(=Cc1ccc2[nH]ccc2c1)C(N)=C(C#N)C#N [AG-370] | 86 |
| CC1=C(O)C(=O)[C@@H]2O[C@@H]2C1=O [Terreic acid] | 104 |
| C[S+]([O-])c1ccc(-c2nc(-c3ccc(F)cc3)c(-c3ccncc3)[nH]2)cc1 (stereo not shown) [SB-203580] | 108 |
| COc1cc2ncnc(Nc3cccc(Cl)c3)c2cc1OC [TYRPHOSTIN AG 1478] | 84.2 |
| N#CC(C#N)=C(N)/C(C#N)=C/c1ccc(O)cc1 [Tyrphostin AG112] | 89.4 |
| O=C1Nc2ccc(I)cc2/C1=C/c1cc(Br)c(O)c(Br)c1 [GW 5074] | 90 |
| C#Cc1cccc(Nc2ncnc3cc(OC)c(OC)cc23)c1 [BML-265] | 118 |
| CCN(CC)CCNC(=O)c1c(C)[nH]c(/C=C2\C(=O)Nc3ccc(Cl)cc32)c1C [SU11652] | 194 |
| COc1cc(/C=C(\C#N)C(N)=O)cc(CSc2nc3ccccc3s2)c1O [AG-825] | 80.1 |

Same assay, conditions: read-out: cell death TNF/Taki (POC)

| Structure (SMILES) | activity at 10 µM [%] |
| --- | --- |
| O=S(=O)(c1cccc2c(I)cccc12)N1CCCNCC1 [ML-7·HCl] | 99.4 |
| O=S(=O)(c1cccc2c(Cl)cccc12)N1CCCNCC1 [ML-9·HCl] | 99.8 |
| O=P(O)(O)C(O)c1ccc2ccccc2c1 (stereo not shown) [HNMPA] | 100 |
| COc1cccc(-c2cc(=O)c3ccccc3o2)c1N [PD-98059] | 98.9 |
| Cc1ccc(NC(=O)c2cccc(N(C)C)c2)cc1NC(=O)c1ccc(O)cc1 [ZM 336372] | 99.4 |
| O=C(O)c1ccc2nc(-c3ccccc3)c(-c3ccccc3)nc2c1 [BML-257] | 99.7 |
| C[C@@H](N)[C@H]1CC[C@H](C(=O)Nc2ccncc2)CC1 [Y-27632·2HCl] | 98.6 |
| N#CC(C#N)=Cc1ccc(O)c(O)c1 [TYRPHOSTIN 23] | 100 |
| N#CC(C#N)=Cc1cc(O)c(O)c(O)c1 [TYRPHOSTIN 25] | 100 |
| CN(C)c1ccc(/C=C2\C(=O)Nc3ccccc32)cc1 [SU 4312] | 96.8 |
| N#C/C(=C\c1cc(Cl)cc(Cl)c1)c1cccnc1 [RG-14620] | 99.8 |
| N#CC(C#N)=Cc1cc(O)c(O)c([N+](=O)[O-])c1 [TYRPHOSTIN AG 1288] | 99.7 |
| N#C/C(=C\c1ccc(O)c(O)c1)C(=O)Nc1ccccc1 [AG-494] | 95.8 |
| N#CC(=Cc1ccc2[nH]ccc2c1)C(N)=C(C#N)C#N [AG-370] | 99.7 |
| CC1=C(O)C(=O)[C@@H]2O[C@@H]2C1=O [Terreic acid] | 99.1 |
| C[S+]([O-])c1ccc(-c2nc(-c3ccc(F)cc3)c(-c3ccncc3)[nH]2)cc1 (stereo not shown) [SB-203580] | 99.6 |
| COc1cc2ncnc(Nc3cccc(Cl)c3)c2cc1OC [TYRPHOSTIN AG 1478] | 98.7 |
| N#CC(C#N)=C(N)/C(C#N)=C/c1ccc(O)cc1 [Tyrphostin AG112] | 98.7 |
| O=C1Nc2ccc(I)cc2/C1=C/c1cc(Br)c(O)c(Br)c1 [GW 5074] | 99.1 |
| C#Cc1cccc(Nc2ncnc3cc(OC)c(OC)cc23)c1 [BML-265] | 99.6 |
| CCN(CC)CCNC(=O)c1c(C)[nH]c(/C=C2\C(=O)Nc3ccc(Cl)cc32)c1C [SU11652] | 104 |
| COc1cc(/C=C(\C#N)C(N)=O)cc(CSc2nc3ccccc3s2)c1O [AG-825] | 99.4 |

Tested on: L929sAhFas
Assay: cells
Set-up: high-content necroptosis screen, percentage PI-positive nuclei as percent of DMSO plus stimulus control
Conditions: mTNF-induced cell death, validation screen; read-out: Validation screen IC50 (µM) (TNF)
From the text: To identify novel inhibitors or regulators of necroptosis, 500 small compounds from libraries targeting autophagy, kinases, phosphatases, proteases and redox balance were screened for their ability to block TNF-induced necroptosis in murine L929sAhFas cells. Three conditions were used to induce necroptosis in L929 cells: TNF alone, TNF+TAK1 inhibitor (TAK1i) and TNF+zVAD-fmk, a pan-caspase inhibitor. Inhibition of TAK1 or caspases sensitizes to necroptosis.[13], [32] Necroptosis, measured as the percentage of PI-positive nuclei normalized to the plate-specific DMSO control, was determined for each compound (Supplementary Figure 1A). Z’ values for the TNF- and TNF+TAK1i-induced cell death assay were 0.498 and 0.919, respectively (Supplementary Figures 2A and B), indicating good assay performance. Sorafenib was identified as an effective inhibitor of both TNF- and TNF+TAK1i-induced necroptosis (Figure 1a). […] In an independent screening with 437 FDA-approved drugs and TNF+zVAD-fmk as necroptosis trigger in L929 cells (Supplementary Figure 1B), Sorafenib was also shown to be a potent inhibitor (Figure 1b). […] After compound treatment, L929sAhFas (a) or L929 (b) cells were stimulated with mTNF (T), mTNF+Tak1i (TiT) or mTNF+zVAD (zVT) (Supplementary Figure 1A and B). (a) Cell death percentage (% PI-positive nuclei) or cell loss was calculated as percent of control (DMSO+stimulus). Green points marked by the green dotted line represent a selection of kinase inhibitors from the screening on L929sAhFas cells (Supplementary Table 1), that are only slightly protective in the TNF-stimulated condition. (b) Cell loss (luminescence-based readout for ATP) was calculated as percent of control (DMSO+stimulus). […] In stimulated conditions, % PI-positive nuclei was determined as % of DMSO control. Data represent mean values±S.E.M. of two independent experiments. Cells were stained with Hoechst and PI and percentage PI-positive nuclei was determined using high-content image analysis (BD pathway Bioimager). (d) L929sAhFas cells were treated with Sorafenib (concentration as indicated) for 24 h. Then, stimulus was removed, 50 cells/condition seeded and colonies counted with crystal violet staining after 10 days incubation. Quantification was performed using ImageJ. n=2, a representative experiment is shown Legends supplementary figures Supplementary Figure S1. Schemes of workflow screening assays in L929 cell lines. (A) Scheme of the workflow of a high-content screening assay on L929sAhFas cells using mTNF (T) and mTNF+Tak1i ((5Z)-7-Oxozeaenol) (TiT) to induce necroptotic cell death. Nec-1 and zVAD-fmk were used as protective and sensitizing benchmarks, respectively, on all plates. (B) Scheme of the workflow of a CellTiter-Glo luminescent cell viability screening assay on L929 cells using mTNF+zVAD (zVT) to induce necroptotic cell death. Supplementary Figure S2. Z’ calculation for cell death screening assays in L929 cells. (A) Z’ calculation for cell death screening assay (Fig. 1A) in mTNF-stimulated L929sAhFas cells. (B) Z’ calculation for cell death screening assay (Fig. 1A) in L929sAhFas cells stimulated with mTNF + Taki.

| Structure (SMILES) | IC50 [µM] |
| --- | --- |
| CN(C)c1ccc(/C=C2\C(=O)Nc3ccccc32)cc1 [SU 4312] | 26.4 |
| N#C/C(=C\c1ccc(O)c(O)c1)C(=O)Nc1ccccc1 [AG-494] | 32.3 |
